Measurements published in patent US9642819B2, “Low dosage serotonin 5-HT2A receptor agonist to suppress inflammation” (BOARD OF SUPERVISORS OF LOUISIANA STATE UNIVERSITY AND …, priority 2008, dated 2017).

How the values were obtained:
IL-6 gene expression = assay: TNF-α induced IL-6 gene expression in primary rat aortic smooth muscle cells; format: cell-based; conditions: RASM passage 4, media with FBS, 24 h pretreatment, TNF-α 10 ng/ml, read-out: IC50 for proinflammatory gene expression inhibition for IL-6
Procedure: RASM cells and treatment. Rat aortic smooth muscle (RASM) cells were isolated from adult 180 g male Sprague-Dawley rats and provided by the Cell and Molecular Core Facility in the Department of Pharmacology at LSUHSC-NO. Isolated RASM cells were grown in M-199 media containing 10% fetal bovine serum (Gibco), 100 units/mL penicillin, and 100 µg/mL streptomycin, and incubated at 37° C. in 5% CO2. Cells for all assays were used between passages 3 and 5. Prior to treatments, cells were grown in M-199 media with 10% fetal bovine serum (FBS) until 30-50% confluent. […]
RNA isolation and Quantitative Realtime-PCR. […]
The sequences of primers used are: 5-HT2AR (5-hydroxytryptamine 2A receptor): forward primer 5′-[…]-3′ (SEQ ID NO: 1), reverse primer, 5′[…]-3′ (SEQ ID NO: 2); ICAM-1 (intracellular adhesion molecule 1): forward primer, 5′-[…]-3′ (SEQ ID NO: 3, reverse primer, 5′-[…]-3′ (SEQ ID NO: 4); VCAM-1 (vascular adhesion molecule 1): forward primer, 5′-[…]-3′ (SEQ ID NO: 5), reverse primer, 5′-[…]-3′ (SEQ ID NO: 6); IL-6 (interleukin-6): forward primer, 5′-[…] […]-3′ (SEQ ID NO: 7), reverse primer, 5′-[…]-3′ (SEQ ID NO: 8); and cyclophillin B (control amplicon): forward primer, 5′-[…]-3′ (SEQ ID NO: 9), reverse primer, 5′-[…]-3′ (SEQ ID NO: 10). […] Quantitative determination of gene expression levels using a 2-step cycling protocol was performed on a MyIQ-5 Cycler (Bio-Rad, Hercules Calif.). […]

[1] = tested on: Nitric Oxide Synthetase (NOS) activity; assay: NOS activity: nitrite levels in culture medium of RASM cells after TNF-α; format: cell-based, rat; conditions: 1 nM pretreatment for 24 hours, TNF-α 10 ng/ml 24 hours
Procedure: Nitric Oxide Synthetase (NOS) Activity. NOS activity was determined by detection of nitrite levels in the cell culture medium following (R)-DOI/TNF-α treatments utilizing the Nitrate Detection kit from Assay Designs (Ann Arbor, Mich.) following the manufacturers protocols. Absorbances were detected at 539 nm on a […] SpectraMax M2 plate reader.
A key participant in inflammatory processes is NOS activity (Guzik et al., 2003). NOS activity can regulate NF-kB activation (Ckless et al., 2007), and cytokine pathway-activated NF-kB can transcriptionally regulate iNOS gene expression (Guo et al., 2007). To examine the effects of 5-HT2A receptor activation on this component of inflammatory mechanisms, primary RASM cells were used to examine the ability of 1 nM (R)-DOI to block TNF-α mediated increases in nitrite levels.
As an indicator of NOS activity, nitrite levels were measured in the cell culture media after treatments and are shown in FIG. 6 as % control. […] Pretreatment with 1 nM (R)-DOI for 24 hours blocked TNF-α mediated increases in nitrite accumulation (DOI+T).

ICAM-1 gene expression = assay: LPS stimulated ICAM-1 gene expression in primary rat aortic smooth muscle cells; format: cell-based; conditions: 60 minute pretreatment, 100 nM
Procedure: All treatments with 5-HT2A receptor agonists occurred 1 hour prior to the addition of TNF-alpha (10 ng/ml) or LPS (100 ng or […]) depending on the experiment. All RNA isolations, cDNA synthesis, QPCR gene expression assays examining ICAM1, VCAM1, and IL6, and data analysis were performed as described above in Example 1, except the primers were different for the human cell experiment. The human gene PCR primer sequences and universal probe numbers were as follows: cyclophillin (control amplicon; Probe U64): forward primer, 5′-[…]-3′ (SEQ ID NO: 11), reverse primer, 5′-[…]-3′ (SEQ ID NO: 12); and human ICAM-1 (Probe U71, intracellular adhesion molecule 1): forward primer, 5′-[…]-3′ (SEQ ID NO: 13), reverse primer, 5′-[…]-3′ (SEQ ID NO: 14).
The effect of (R)-DOI (60 minute pretreatment) on the expression of ICAM-1 in primary rat aortic smooth muscle cells after stimulation with LPS was examined. […] At a higher dose of LPS (1 μg), there was no effect of (R)-DOI on the increase in ICAM-1.

Structure (SMILES): COc1cc(C[C@@H](C)N)c(OC)cc1I [(R)-DOI, (R)-1-(2,5-dimethoxy-4-iodophenyl)-2-aminopropane]
- IC50 (IL-6 gene expression): 0.0103 nM
- effect on TNF-α mediated increases in nitrite accumulation [1]: blocked
- effect on ICAM-1 induction by low dose of LPS (ICAM-1 gene expression; LPS 100 ng): able to block the response
- effect on ICAM-1 increase by higher dose of LPS (ICAM-1 gene expression; LPS 1 μg): no effect
